Reference: patent publication US9955691B2, “Macrocyclic picolinamides as fungicides” (DOW AGROSCIENCES LLC, priority 2014, dated 2018)
Read-outs that look alike come from different tables or passages of the source.

How the values were obtained:
[1] = tested on: Mycosphaerella graminicola; Anamorph: Septoria tritici; experiment: Fungicidal activity: Leaf Blotch of Wheat (SEPTTR); assay type: in vivo; details: Zymoseptoria tritici, wheat leaf blotch; for pest or weed control at 121.5 g/ha: Low Volume (121.5 g/H); for pest or weed control at 100 µg/mL: High Volume (100 ppm)
Summary of the method: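 Compounds were dissolved in acetone, diluted with nine volumes of water containing 110 ppm Triton X-100, and sprayed to run-off on first-leaf Yuma wheat seedlings inoculated with Septoria tritici spores before or after treatment. Plants were held in a dew chamber, then a 20° C. greenhouse. Percent control was derived from disease severity relative to untreated plants.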

Puccinia triticina = experiment: Fungicidal activity: Wheat Brown Rust (PUCCRT); assay type: in vivo; details: for pest or weed control at 121.5 g/ha: Low Volume (121.5 g/H); for pest or weed control at 100 µg/mL: High Volume (100 ppm)
Summary of the method: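 Percent control of brown rust was derived from 0-100% severity on treated versus untreated first leaves. Yuma wheat seedlings were spray-treated to run-off (acetone/water, Triton X-100) and inoculated with P. triticina spores before or after treatment, then held overnight in dark dew at 22° C and moved to a 24° C greenhouse.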

[2] = 24 h, 1 Day Protectant, read-out: SEPTTR 1 DP disease control
[3] = 72 h, 3 Day Curative, read-out: SEPTTR 3 DC disease control
[4] = 24 h, 1 Day Protectant, read-out: PUCCRT 1 DP disease control
[5] = 72 h, 3 Day Curative, read-out: PUCCRT 3 DC disease control

## COc1ccnc(C(=O)N[C@H]2COC[C@H](CC3CC3)[C@@H](Cc3ccccc3)[C@H](C)OC2=O)c1OC(C)=O [compound 69]
[1]; [2]
  pest or weed control at 121.5 g/ha: > 70%
[1]; [3]
  pest or weed control at 121.5 g/ha: > 70%
Puccinia triticina; [4]
  pest or weed control at 121.5 g/ha: > 70%
Puccinia triticina; [5]
  pest or weed control at 121.5 g/ha: > 70%
other
  melting point: 125 to 128 °C

## C=C(C)COC[C@@H]1[C@@H](Cc2ccccc2)COC[C@H](NC(=O)c2nccc(OC)c2OCOC(C)=O)C(=O)O[C@H]1C [compound 11]
other
  melting point: 35 to 40 °C

## COc1ccnc(C(=O)N[C@H]2COC[C@H](Cc3ccc(C(F)(F)F)cc3)[C@@H](CC(C)C)[C@H](C)OC2=O)c1O [compound 141]
[1]; [2]
  pest or weed control at 100 µg/mL: > 70%
[1]; [3]
  pest or weed control at 100 µg/mL: > 70%
Puccinia triticina; [4]
  pest or weed control at 100 µg/mL: > 70%
Puccinia triticina; [5]
  pest or weed control at 100 µg/mL: > 70%
other
  melting point: 66 to 71 °C

## CCC[C@H]1COC[C@H](NC(=O)c2nccc(OC)c2O)C(=O)O[C@@H](C)[C@@H]1Cc1ccc(F)cc1 [compound 155]
[1]; [2]
  pest or weed control at 100 µg/mL: > 70%
[1]; [3]
  pest or weed control at 100 µg/mL: > 70%
Puccinia triticina; [4]
  pest or weed control at 100 µg/mL: > 70%
Puccinia triticina; [5]
  pest or weed control at 100 µg/mL: < 70%
other
  melting point: 43 to 48 °C

## COc1ccnc(C(=O)N[C@H]2COC[C@H](Cc3ccc(C(F)(F)F)cc3)[C@@H](CC(C)C)[C@H](C)OC2=O)c1OC(C)=O [compound 72]
[1]; [2]
  pest or weed control at 121.5 g/ha: > 70%
[1]; [3]
  pest or weed control at 121.5 g/ha: > 70%
Puccinia triticina; [4]
  pest or weed control at 121.5 g/ha: > 70%
Puccinia triticina; [5]
  pest or weed control at 121.5 g/ha: > 70%
other
  melting point: 75 to 79 °C

## C[C@@H]1OC(=O)[C@@H](N)COC[C@H](Cc2ccc(C(F)(F)F)cc2)[C@H]1Cc1ccc(OC(F)(F)F)cc1.Cl
other
  melting point: 172 to 175 °C

## COc1ccnc(C(=O)N[C@H]2COC[C@H](CCc3ccccc3)[C@@H](CCc3ccccc3)[C@H](C)OC2=O)c1O [compound 113]
[1]; [2]
  pest or weed control at 100 µg/mL: > 70%
[1]; [3]
  pest or weed control at 100 µg/mL: > 70%
Puccinia triticina; [4]
  pest or weed control at 100 µg/mL: > 70%
Puccinia triticina; [5]
  pest or weed control at 100 µg/mL: < 70%
other
  melting point: 52 to 56 °C

## COc1ccnc(C(=O)N[C@H]2COC[C@H](Cc3ccccc3)[C@@H](c3ccccc3)[C@H](C)OC2=O)c1OC(C)=O [compound 54]
[1]; [2]
  pest or weed control at 121.5 g/ha: > 70%
[1]; [3]
  pest or weed control at 121.5 g/ha: > 70%
Puccinia triticina; [4]
  pest or weed control at 121.5 g/ha: > 70%
Puccinia triticina; [5]
  pest or weed control at 121.5 g/ha: > 70%
other
  melting point: 99 to 103 °C

## C[C@@H]1OC(=O)[C@@H](NC(=O)OC(C)(C)C)COC[C@H](CC2CCCCC2)[C@H]1CC1CCCCC1 [compound 206]
other
  melting point: 44 to 50 °C

## COc1ccnc(C(=O)N[C@H]2COC[C@H](Cc3ccccc3)[C@@H](COc3ccccc3)[C@H](C)OC2=O)c1OC(C)=O [compound 95, 2-(((3S,7R,8S,9S)-7-benzyl-9-methyl-2-oxo-8-(phenoxymethyl)-1,5-dioxonan-3-yl)carbamoyl)-4-methoxypyridin-3-yl acetate]
[1]; [2]
  pest or weed control at 121.5 g/ha: > 70%
[1]; [3]
  pest or weed control at 121.5 g/ha: > 70%
Puccinia triticina; [4]
  pest or weed control at 121.5 g/ha: > 70%
Puccinia triticina; [5]
  pest or weed control at 121.5 g/ha: > 70%
other
  melting point: 70 to 74 °C

## C=C[C@@H]1[C@@H](Cc2ccccc2)COC[C@H](N)C(=O)O[C@H]1C.Cl
other
  melting point: 208 °C (dec.)

## C=C(C)COC[C@@H]1[C@@H](Cc2ccccc2)COC[C@H](NC(=O)OC(C)(C)C)C(=O)O[C@H]1C [compound 208]
other
  melting point: 84 to 88 °C

## CC(C)C[C@@H]1[C@@H](Cc2ccc(C(F)(F)F)cc2)COC[C@H](NC(=O)OC(C)(C)C)C(=O)O[C@H]1C [compound 229]
other
  melting point: 115 to 118 °C

## C[C@@H]1OC(=O)[C@@H](NC(=O)OC(C)(C)C)COC[C@H](Cc2ccccc2)[C@H]1Cc1ccccc1 [Cmpd. 203, tert-butyl ((3S,7R,8R,9S)-7,8-dibenzyl-9-methyl-2-oxo-1,5-dioxonan-3-yl)carbamate]
other
  melting point: 41 to 45 °C

## C=C(C)CCC[C@@H]1[C@@H](Cc2ccccc2)COC[C@H](N)C(=O)O[C@H]1C.Cl
other
  melting point: 184 to 187 °C (dec.)

## C=C[C@@H]1[C@@H](Cc2ccccc2)COC[C@H](NC(=O)c2nccc(OC)c2O)C(=O)O[C@H]1C [compound 118]
other
  melting point: 57 to 63 °C

## C[C@@H]1OC(=O)[C@@H](N)COC[C@H](CCc2ccccc2)[C@H]1CCc1ccccc1.Cl
other
  melting point: 184 °C (dec.)

## COc1ccnc(C(=O)N[C@H]2COC[C@H](Cc3ccccc3)[C@@H](c3ccccc3)[C@H](C)OC2=O)c1OCOC(=O)C(C)C [compound 52]
other
  melting point: 69 to 73 °C

## C[C@@H]1OC(=O)[C@@H](N)COC[C@H](CC2CCCCC2)[C@H]1CC1CCCCC1.Cl
other
  melting point: 191 to 197 °C (dec.)

## C[C@@H]1OC(=O)[C@@H](NC(=O)OC(C)(C)C)COC[C@H](Cc2ccccc2)[C@H]1c1ccccc1 [compound 224]
other
  melting point: 66 to 71 °C

## CCC[C@H]1COC[C@H](N)C(=O)O[C@@H](C)[C@@H]1Cc1ccc(F)cc1.Cl
other
  melting point: 184 to 187 °C

## C[C@@H]1OC(=O)[C@@H](NC(=O)OC(C)(C)C)COC[C@H](c2ccccc2)[C@H]1c1ccccc1 [compound 204]
other
  melting point: 63 to 71 °C

## C[C@@H]1OC(=O)[C@@H](N)COC[C@H](Cc2ccc(Cl)cc2)[C@H]1Cc1ccc(OC(F)(F)F)cc1.Cl
other
  melting point: 144 to 148 °C

## C[C@@H]1OC(=O)[C@@H](NC(=O)OC(C)(C)C)COC[C@H](Cc2ccc(Cl)cc2)[C@H]1C1CCCC1 [compound 237]
other
  melting point: 113 to 115 °C

## C[C@H]1OC(=O)[C@@H](N)COC[C@H](Cc2ccccc2)[C@H]1Cc1ccccc1.Cl
other
  melting point: 206 to 211 °C

## COc1cccc(C[C@H]2COC[C@H](N)C(=O)O[C@@H](C)[C@@H]2Cc2cccc(OC)c2)c1.Cl
other
  melting point: 181 to 186 °C (dec.)

## CC(C)CC[C@H]1COC[C@H](N)C(=O)O[C@@H](C)[C@@H]1C1CCCC1.Cl
other
  melting point: 149 to 153 °C

## C[C@@H]1OC(=O)[C@@H](N)COC[C@H](Cc2ccccc2)[C@H]1COc1ccccc1.Cl
other
  melting point: 209 to 214 °C

## C[C@@H]1OC(=O)[C@@H](NC(=O)OC(C)(C)C)COC[C@H](Cc2ccc(C(F)(F)F)cc2)[C@H]1Cc1ccc(OC(F)(F)F)cc1 [compound 225]
other
  melting point: 50 to 56 °C

## C[C@@H]1OC(=O)[C@@H](N)COC[C@H](Cc2ccc(Cl)cc2)[C@H]1C1CCCC1.Cl
other
  melting point: 200 to 203 °C

## C[C@@H]1OC(=O)[C@@H](N)COC[C@H](CC2CCCC2)[C@H]1CC1CCCC1.Cl
other
  melting point: 164 to 167 °C

## C[C@@H]1OC(=O)[C@@H](NC(=O)OC(C)(C)C)COC[C@H](CC2CCCC2)[C@H]1CC1CCCC1 [compound 215]
other
  melting point: 95 to 99 °C

## C[C@@H]1OC(=O)[C@@H](N)COC[C@H](Cc2ccccc2)[C@H]1Cc1ccccc1.Cl
other
  melting point: 196 to 202 °C

## C[C@@H]1OC(=O)[C@@H](NC(=O)OC(C)(C)C)COC[C@H](Cc2ccccc2)[C@H]1Cc1ccc(OC(F)(F)F)cc1 [compound 223]
other
  melting point: 47 to 51 °C

## C[C@@H]1OC(=O)[C@@H](N)COC[C@H](CCCc2ccccc2)[C@H]1CCc1ccccc1.Cl
other
  melting point: 147 to 151 °C

## C=C[C@@H]1[C@@H](Cc2ccccc2)COC[C@H](NC(=O)OC(C)(C)C)C(=O)O[C@H]1C [compound 205]
other
  melting point: 134 to 138 °C

## CCOCC(=O)OCOc1c(OC)ccnc1C(=O)N[C@H]1COC[C@H](CCCc2ccccc2)[C@@H](Cc2ccc(OC(F)(F)F)cc2)[C@H](C)OC1=O [compound 77]
[1]; [2]
  pest or weed control at 121.5 g/ha: < 70%
[1]; [3]
  pest or weed control at 121.5 g/ha: < 70%
Puccinia triticina; [4]
  pest or weed control at 121.5 g/ha: < 70%
Puccinia triticina; [5]
  pest or weed control at 121.5 g/ha: < 70%

## COc1ccnc(C(=O)N[C@H]2COC[C@H](Cc3ccc(Cl)cc3)[C@@H](Cc3ccccc3)[C@H](C)OC2=O)c1O [compound 135]
[1]; [2]
  pest or weed control at 100 µg/mL: > 70%
[1]; [3]
  pest or weed control at 100 µg/mL: < 70%
Puccinia triticina; [4]
  pest or weed control at 100 µg/mL: > 70%
Puccinia triticina; [5]
  pest or weed control at 100 µg/mL: < 70%

## C[C@@H]1OC(=O)[C@@H](N)COC[C@H](CC2CC2)[C@H]1Cc1ccccc1.Cl
other
  melting point: 189 to 195 °C

## COc1ccnc(C(=O)N[C@H]2COC[C@H](CCC(C)C)[C@@H](CCc3ccccc3)[C@H](C)OC2=O)c1OC(C)=O [compound 33]
[1]; [2]
  pest or weed control at 121.5 g/ha: > 70%
[1]; [3]
  pest or weed control at 121.5 g/ha: > 70%
Puccinia triticina; [4]
  pest or weed control at 121.5 g/ha: > 70%
Puccinia triticina; [5]
  pest or weed control at 121.5 g/ha: > 70%

## CCOCC(=O)OCOc1c(OC)ccnc1C(=O)N[C@H]1COC[C@H](CCC(C)C)[C@@H](CCc2ccccc2)[C@H](C)OC1=O [compound 36]
[1]; [2]
  pest or weed control at 121.5 g/ha: > 70%
[1]; [3]
  pest or weed control at 121.5 g/ha: > 70%
Puccinia triticina; [4]
  pest or weed control at 121.5 g/ha: > 70%
Puccinia triticina; [5]
  pest or weed control at 121.5 g/ha: < 70%

## COc1ccnc(C(=O)N[C@H]2COC[C@H](CCC(C)C)[C@@H](CCC(C)C)[C@H](C)OC2=O)c1O [compound 117]
[1]; [2]
  pest or weed control at 100 µg/mL: > 70%
[1]; [3]
  pest or weed control at 100 µg/mL: < 70%
Puccinia triticina; [4]
  pest or weed control at 100 µg/mL: > 70%
Puccinia triticina; [5]
  pest or weed control at 100 µg/mL: > 70%

## CC(C)COC[C@@H]1[C@@H](Cc2ccccc2)COC[C@H](N)C(=O)O[C@H]1C.Cl
other
  melting point: 196 to 199 °C

## CC(C)C[C@@H]1[C@@H](Cc2ccc(C(F)(F)F)cc2)COC[C@H](N)C(=O)O[C@H]1C.Cl
other
  melting point: 163 to 168 °C
